From US20100015141A1, “4-PHENOXY-6-ARYL-1H-PYRAZOLO[3,4-D]PYRIMIDINE AND N-ARYL-6-ARYL-1H-PYRAZOLO[3,4-D]PYRIMIDIN-4-AMINE COMPOUNDS, THEIR USE AS MTOR KINASE AND PI3 KINASE INHIBITORS, AND THEIR SYNTHESES” (Wyeth, priority 2008, published 2010)
pIC50: −log10 of the molar value.

Key:
PI3K-α = PI3K-α (Homo sapiens, UniProt P42336); assay: PI3K-alpha fluorescence polarization assay; assay type: biochemical; settings: 20 μM PIP2, 25 μM ATP
Experimental: (§1) The reaction buffer was 20 mM HEPES pH7.5, 2 mM MgCl2, 0.05% CHAPS, and 0.01% βME (added fresh). The substrate solution was 40 μM PIP2 (diC8, Echelon, Salt Lake City Utah cat #P-4508, 1 mM in water) and 50 μM ATP in the reaction buffer. Nunc 384-well black polypropylene fluorescent plates were used for PI3K assays. The assay is run by putting 9.5 μl of freshly diluted enzyme in the reaction buffer per well, adding 0.5 μl of diluted drug or DMSO, and mixing. Then 10 μl of the substrate solution is added to each well to start the reaction. A final concentration of 20 μM PIP2 and 25 μM ATP in the reaction was used. Reactions were allowed to proceed for 30-60 minutes at room temperature. After 30-60 minutes, 20 μl of a solution of 10 nM TAMRA detector (Red detector probe-Echelon) and 2.5 uM of GST-murineGRP (1.5 mg/ml in 17% glycerol) was added per well to stop the reaction. The resulting solution was mixed well and allowed to stand for 90-110 minutes before reading plate. Assay Plates were read on Perkin-Elmer Envision plate readers with appropriate filters for Tamra [BODIPY-TMRI(1,3,4,5)P4]. Data obtained were used to calculate enzymatic activity and enzyme inhibition by inhibitor compounds. It is important to keep Red probe solutions dark. This procedure is adapted from Echelon Biosciences Inc procedure for their PI3-Kinase fluorescence polarization activity Assay kit Product number K-1100.

PI3K-γ = PI3K-γ (Homo sapiens, UniProt P48736); assay: PI3K-gamma fluorescence polarization assay; assay type: biochemical; settings: 20 μM PIP2, 25 μM ATP
Chain of PI3K-γ (P48736 whole entry, species assumed): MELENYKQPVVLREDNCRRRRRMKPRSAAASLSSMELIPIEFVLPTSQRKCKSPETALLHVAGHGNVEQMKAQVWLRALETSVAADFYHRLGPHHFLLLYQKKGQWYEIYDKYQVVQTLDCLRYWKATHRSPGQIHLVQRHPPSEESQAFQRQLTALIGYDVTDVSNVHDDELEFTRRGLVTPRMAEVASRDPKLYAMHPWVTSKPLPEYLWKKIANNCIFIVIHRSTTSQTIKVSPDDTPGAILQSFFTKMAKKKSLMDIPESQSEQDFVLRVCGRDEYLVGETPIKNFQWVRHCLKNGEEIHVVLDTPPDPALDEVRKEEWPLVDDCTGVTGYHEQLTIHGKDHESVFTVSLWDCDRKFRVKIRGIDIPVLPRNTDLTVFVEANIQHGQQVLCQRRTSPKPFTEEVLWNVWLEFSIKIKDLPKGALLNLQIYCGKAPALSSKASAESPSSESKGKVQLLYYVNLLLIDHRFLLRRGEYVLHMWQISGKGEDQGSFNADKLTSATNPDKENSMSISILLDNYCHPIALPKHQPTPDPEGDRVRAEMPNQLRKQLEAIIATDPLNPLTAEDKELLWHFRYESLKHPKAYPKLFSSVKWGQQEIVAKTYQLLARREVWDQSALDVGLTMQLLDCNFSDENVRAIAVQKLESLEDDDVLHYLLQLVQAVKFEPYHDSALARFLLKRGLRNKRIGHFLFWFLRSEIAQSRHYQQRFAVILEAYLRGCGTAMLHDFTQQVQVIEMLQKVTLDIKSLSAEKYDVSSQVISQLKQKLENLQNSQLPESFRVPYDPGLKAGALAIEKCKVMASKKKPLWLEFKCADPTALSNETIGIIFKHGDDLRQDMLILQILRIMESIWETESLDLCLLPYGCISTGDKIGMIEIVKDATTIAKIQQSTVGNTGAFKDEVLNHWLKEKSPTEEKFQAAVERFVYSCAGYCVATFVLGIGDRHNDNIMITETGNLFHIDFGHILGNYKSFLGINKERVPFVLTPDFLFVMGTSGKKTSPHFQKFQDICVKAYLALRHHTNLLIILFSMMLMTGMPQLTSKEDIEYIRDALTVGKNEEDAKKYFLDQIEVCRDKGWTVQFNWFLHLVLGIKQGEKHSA
Experimental: as §1

Chain of PI3K-α (P42336 whole entry, species assumed): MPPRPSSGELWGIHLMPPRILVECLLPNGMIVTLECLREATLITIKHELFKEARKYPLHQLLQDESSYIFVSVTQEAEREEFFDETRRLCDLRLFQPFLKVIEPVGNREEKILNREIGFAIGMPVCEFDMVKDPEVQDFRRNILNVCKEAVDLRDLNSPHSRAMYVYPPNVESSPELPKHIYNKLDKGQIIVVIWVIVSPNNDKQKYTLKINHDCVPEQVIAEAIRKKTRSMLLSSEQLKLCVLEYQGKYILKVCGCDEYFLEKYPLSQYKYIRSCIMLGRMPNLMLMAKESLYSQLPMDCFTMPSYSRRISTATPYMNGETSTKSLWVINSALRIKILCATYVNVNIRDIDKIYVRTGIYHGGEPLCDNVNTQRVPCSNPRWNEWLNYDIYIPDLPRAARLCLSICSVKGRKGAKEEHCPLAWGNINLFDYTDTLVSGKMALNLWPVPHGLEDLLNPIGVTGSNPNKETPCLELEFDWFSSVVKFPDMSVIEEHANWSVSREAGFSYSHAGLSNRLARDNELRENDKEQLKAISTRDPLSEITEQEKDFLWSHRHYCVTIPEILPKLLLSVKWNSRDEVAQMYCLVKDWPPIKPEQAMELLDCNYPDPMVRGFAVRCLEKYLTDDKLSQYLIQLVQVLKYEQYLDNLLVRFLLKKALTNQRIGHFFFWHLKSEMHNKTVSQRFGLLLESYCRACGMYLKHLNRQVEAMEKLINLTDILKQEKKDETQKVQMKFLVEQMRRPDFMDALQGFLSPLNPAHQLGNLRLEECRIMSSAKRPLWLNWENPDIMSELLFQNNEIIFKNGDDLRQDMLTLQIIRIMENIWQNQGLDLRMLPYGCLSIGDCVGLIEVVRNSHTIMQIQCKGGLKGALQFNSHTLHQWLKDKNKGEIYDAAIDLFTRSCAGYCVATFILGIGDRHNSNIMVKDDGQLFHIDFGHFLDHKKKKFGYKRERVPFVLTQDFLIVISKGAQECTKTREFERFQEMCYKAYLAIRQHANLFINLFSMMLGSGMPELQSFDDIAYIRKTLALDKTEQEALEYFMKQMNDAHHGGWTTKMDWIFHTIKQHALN
Chain of PI3K-α (P27986 whole entry partner, species assumed): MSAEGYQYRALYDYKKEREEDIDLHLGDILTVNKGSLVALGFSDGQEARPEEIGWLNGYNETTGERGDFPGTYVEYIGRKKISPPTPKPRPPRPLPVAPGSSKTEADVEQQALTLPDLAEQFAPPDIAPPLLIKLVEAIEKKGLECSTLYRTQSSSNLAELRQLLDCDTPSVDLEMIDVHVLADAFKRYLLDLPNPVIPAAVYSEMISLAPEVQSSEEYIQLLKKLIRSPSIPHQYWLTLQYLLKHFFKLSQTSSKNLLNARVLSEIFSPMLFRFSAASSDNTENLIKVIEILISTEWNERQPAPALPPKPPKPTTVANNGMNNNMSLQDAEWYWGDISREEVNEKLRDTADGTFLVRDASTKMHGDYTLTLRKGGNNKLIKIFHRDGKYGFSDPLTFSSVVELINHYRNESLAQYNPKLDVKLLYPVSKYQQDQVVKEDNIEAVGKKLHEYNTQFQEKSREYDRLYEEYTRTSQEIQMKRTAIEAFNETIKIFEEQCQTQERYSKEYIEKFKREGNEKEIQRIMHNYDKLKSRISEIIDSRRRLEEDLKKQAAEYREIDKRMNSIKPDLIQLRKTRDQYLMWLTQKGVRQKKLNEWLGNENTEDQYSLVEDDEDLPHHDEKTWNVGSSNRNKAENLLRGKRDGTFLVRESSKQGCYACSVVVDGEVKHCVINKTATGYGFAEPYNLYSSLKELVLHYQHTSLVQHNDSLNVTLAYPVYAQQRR

Row | Compound | pIC50 (PI3K-α) | pIC50 (PI3K-γ)
1 | COc1ccc(Nc2nc(-c3ccccc3)nc3c2cnn3C2CCN(Cc3ccccc3)CC2)cc1OC [Example 2, 1-(1-benzylpiperidin-4-yl)-N-(3,4-dimethoxyphenyl)-6-phenyl-1H-pyrazolo[3,4-d]pyrimidin-4-amine] | < 5.00 | 5.29
2 | CC(=O)Nc1cccc(Nc2nc(-c3ccccc3)nc3c2cnn3C2CCN(Cc3ccccc3)CC2)c1 [Example 5, N-(3-{[1-(1-benzylpiperidin-4-yl)-6-phenyl-1H-pyrazolo[3,4-d]pyrimidin-4-yl]amino}phenyl)acetamide] | 5.08 | 5.15
3 | NC(=O)c1ccc(Nc2nc(-c3cccc(O)c3)nc3c2cnn3C2CCN(Cc3ccccc3)CC2)cc1 [Example 6, 4-{[1-(1-benzylpiperidin-4-yl)-6-(3-hydroxyphenyl)-1H-pyrazolo[3,4-d]pyrimidin-4-yl]amino}benzamide] | 5.46 | 5.15
4 | Oc1cccc(-c2nc(Nc3ccc4[nH]ccc4c3)c3cnn(C4CCN(Cc5ccccc5)CC4)c3n2)c1 [Example 9, 3-[1-(1-benzylpiperidin-4-yl)-4-(1H-indol-5-ylamino)-1H-pyrazolo[3,4-d]pyrimidin-6-yl]phenol] | < 5.00 | 4.88
5 | CC(=O)Nc1cccc(Nc2nc(-c3cccc(O)c3)nc3c2cnn3C2CCN(Cc3ccccc3)CC2)c1 [Example 10, N-(3-{[1-(1-benzylpiperidin-4-yl)-6-(3-hydroxyphenyl)-1H-pyrazolo[3,4-d]pyrimidin-4-yl]amino}phenyl)acetamide] | 5.21 | 5.33
6 | COc1ccc(Nc2nc(-c3ccccc3)nc3c2cnn3C2CCNCC2)cc1OC [Example 13, N-(3,4-dimethoxyphenyl)-6-phenyl-1-piperidin-4-yl-1H-pyrazolo[3,4-d]pyrimidin-4-amine] | < 5.00 | 5.11
7 | CC(=O)Nc1cccc(Nc2nc(-c3ccccc3)nc3c2cnn3C2CCNCC2)c1 [Example 15, N-{3-[(6-phenyl-1-piperidin-4-yl-1H-pyrazolo[3,4-d]pyrimidin-4-yl)amino]phenyl}acetamide] | < 5.00 | 5.08
8 | NC(=O)c1cccc(Nc2nc(-c3cccc(O)c3)nc3c2cnn3C2CCNCC2)c1 [Example 18, 3-{[6-(3-hydroxyphenyl)-1-piperidin-4-yl-1H-pyrazolo[3,4-d]pyrimidin-4-yl]amino}benzamide] | < 5.00 | 5.01
9 | NC(=O)c1ccc(Nc2nc(-c3cccc([N+](=O)[O-])c3)nc3c2cnn3C2CCN(Cc3ccccc3)CC2)cc1 [Example 21, 4-{[1-(1-benzylpiperidin-4-yl)-6-(3-nitrophenyl)-1H-pyrazolo[3,4-d]pyrimidin-4-yl]amino}benzamide] | 5.55 | 5.61
10 | NC(=O)c1ccc(Nc2nc(-c3ccc(O)cc3)nc3c2cnn3C2CCN(Cc3ccccc3)CC2)cc1 [Example 24, 4-{[1-(1-benzylpiperidin-4-yl)-6-(4-hydroxyphenyl)-1H-pyrazolo[3,4-d]pyrimidin-4-yl]amino}benzamide] | 5.26 | 5.28
11 | NC(=O)c1ccc(Nc2nc(-c3cccc(C(F)(F)F)c3)nc3c2cnn3C2CCN(Cc3ccccc3)CC2)cc1 [Example 25, 4-({1-(1-benzylpiperidin-4-yl)-6-[3-(trifluoromethyl)phenyl]-1H-pyrazolo[3,4-d]pyrimidin-4-yl}amino)benzamide] | 5.46 | 5.65
12 | NC(=O)c1ccc(Nc2nc(-c3ccccc3O)nc3c2cnn3C2CCN(Cc3ccccc3)CC2)cc1 [Example 26, 4-{[1-(1-benzylpiperidin-4-yl)-6-(2-hydroxyphenyl)-1H-pyrazolo[3,4-d]pyrimidin-4-yl]amino}benzamide] | 5.65 | 5.40
13 | COc1ccc(Nc2nc(-c3ccc(O)cc3)nc3c2cnn3C2CCN(Cc3ccccc3)CC2)cc1OC [Example 30, 4-{1-(1-benzylpiperidin-4-yl)-4-[(3,4-dimethoxyphenyl)amino]-1H-pyrazolo[3,4-d]pyrimidin-6-yl}phenol] | < 5.23 | 5.48
14 | COc1ccc(N(C)c2nc(-c3ccccc3)nc3c2cnn3C)cc1OC [Example 36, N-(3,4-dimethoxyphenyl)-N,1-dimethyl-6-phenyl-1H-pyrazolo[3,4-d]pyrimidin-4-amine] | < 5.01 | 

Next, values leading:

Row | pIC50 (PI3K-α) | pIC50 (PI3K-γ) | Compound
15 | 5.21 | 5.15 | NC(=O)c1ccc(Nc2nc(-c3ccccc3)nc3c2cnn3C2CCN(Cc3ccccc3)CC2)cc1 [Example 1, 4-{[1-(1-benzylpiperidin-4-yl)-6-phenyl-1H-pyrazolo[3,4-d]pyrimidin-4-yl]amino}benzamide]
16 | 5.14 | 5.30 | NC(=O)c1cccc(Nc2nc(-c3ccccc3)nc3c2cnn3C2CCN(Cc3ccccc3)CC2)c1 [Example 3, 3-{[1-(1-benzylpiperidin-4-yl)-6-phenyl-1H-pyrazolo[3,4-d]pyrimidin-4-yl]amino}benzamide]
17 | < 5.00 | 4.99 | c1ccc(CN2CCC(n3ncc4c(Nc5ccc6[nH]ccc6c5)nc(-c5ccccc5)nc43)CC2)cc1 [Example 4, 1-(1-benzylpiperidin-4-yl)-N-1H-indol-5-yl-6-phenyl-1H-pyrazolo[3,4-d]pyrimidin-4-amine]
18 | < 5.00 | 5.23 | COc1ccc(Nc2nc(-c3cccc(O)c3)nc3c2cnn3C2CCN(Cc3ccccc3)CC2)cc1OC [Example 7, 3-{1-(1-benzylpiperidin-4-yl)-4-[(3,4-dimethoxyphenyl)amino]-1H-pyrazolo[3,4-d]pyrimidin-6-yl}phenol]
19 | 5.22 | 5.15 | NC(=O)c1cccc(Nc2nc(-c3cccc(O)c3)nc3c2cnn3C2CCN(Cc3ccccc3)CC2)c1 [Example 8, 3-{[1-(1-benzylpiperidin-4-yl)-6-(3-hydroxyphenyl)-1H-pyrazolo[3,4-d]pyrimidin-4-yl]amino}benzamide]
20 | < 5.00 | 5.23 | COc1ccc(Nc2nc(-c3cccc(O)c3)nc3c2cnn3C2CCNCC2)cc1OC [Example 17, 3-{4[(3,4-dimethoxyphenyl)amino]-1-piperidin-4-yl-1H-pyrazolo[3,4-d]pyrimidin-6-yl}phenol]
21 | < 5.00 | 5.23 | Oc1cccc(-c2nc(Nc3ccc4[nH]ccc4c3)c3cnn(C4CCNCC4)c3n2)c1 [Example 19, 3-[4-(1H-indol-5-ylamino)-1-piperidin-4-yl-1H-pyrazolo[3,4-d]pyrimidin-6-yl]phenol]
22 | 5.58 | 5.56 | COc1cccc(-c2nc(Nc3ccc(C(N)=O)cc3)c3cnn(C4CCN(Cc5ccccc5)CC4)c3n2)c1 [Example 23, 4-{[1-(1-benzylpiperidin-4-yl)-6-(3-methoxyphenyl)-1H-pyrazolo[3,4-d]pyrimidin-4-yl]amino}benzamide]
23 | 5.42 | < 5.00 | CN(C)c1ccc(-c2nc(Oc3ccc4[nH]ccc4c3)c3cnn(C)c3n2)cc1 [Example 40, 4-[4-(1H-indol-5-yloxy)-1-methyl-1H-pyrazolo[3,4-d]pyrimidin-6-yl]-N,N-dimethylaniline]
24 | 5.92 | 6.02 | Cn1ncc2c(Oc3ccc4[nH]ccc4c3)nc(-c3cccc(C(F)(F)F)c3)nc21 [Example 42, 4-(1H-indol-5-yloxy)-1-methyl-6-[3-(trifluoromethyl)phenyl]-1H-pyrazolo[3,4-d]pyrimidine]
